# Laboratory results: article PMC6934184, “Selective DNA-PKcs inhibition extends the therapeutic index of localized radiotherapy and chemotherapy” (The Journal of Clinical Investigation, 2019)
# Biological target: T1, CAMK2D (CaMKII delta) (Homo sapiens, UniProt Q13557)
# T1 construct: purchased Thermo Fisher Scientific (Life Technologies) SelectScreen
# Test: SelectScreen Z'LYTE
# Assay type: biochemical
# Procedure, shortened: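 NU5455 was profiled across the SelectScreen Broad panel of kinase activity and binding assays. Z'LYTE reactions such as CSF1R ran at apparent Km ATP, while the Adapta CAMK1 assay used ATP listed as 10. Values are given as percent.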
# T1 sequence (Q13557 whole entry): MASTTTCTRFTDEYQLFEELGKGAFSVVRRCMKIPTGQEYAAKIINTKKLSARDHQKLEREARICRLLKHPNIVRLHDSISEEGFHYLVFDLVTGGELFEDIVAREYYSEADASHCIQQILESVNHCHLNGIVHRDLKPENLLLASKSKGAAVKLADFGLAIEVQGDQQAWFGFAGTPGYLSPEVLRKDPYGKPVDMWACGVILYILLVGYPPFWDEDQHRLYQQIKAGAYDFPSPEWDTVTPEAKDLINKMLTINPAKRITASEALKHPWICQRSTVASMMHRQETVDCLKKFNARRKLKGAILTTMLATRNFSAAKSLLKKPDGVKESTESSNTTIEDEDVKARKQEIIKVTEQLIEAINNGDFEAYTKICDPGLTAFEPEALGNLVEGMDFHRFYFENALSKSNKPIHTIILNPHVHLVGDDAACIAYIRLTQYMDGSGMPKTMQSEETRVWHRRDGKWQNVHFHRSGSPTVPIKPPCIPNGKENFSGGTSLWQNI
smiles,measurement,value
CN(C(=O)CN1CCOCC1)c1ccc2sc3c(-c4cccc5c(=O)cc(N6CC7CCC(C6)O7)oc45)cccc3c2c1 [NU5455],inhibition at 1 µM,9.3%
